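Test compounds were applied to cells in 96-well plates for 48 hours at 5 doses. Abbreviation: GI50, concentration required for 50% inhibition of growth.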 Active and inactive are the calls of the source. No stated cut-off is given here; in the data, active = GI50 up to about 1.1 µM and inactive = higher.
Legend:
Test in all cases: DTP human tumour cell line panel, 48 h
A498 = system: A498
ACHN = system: ACHN
CAKI-1 = system: CAKI-1
CCRF-CEM = system: CCRF-CEM
HT-29 = system: HT-29
Hs-578T = system: Hs-578T
IGROV-1 = system: IGROV-1
M14 = system: M14
MCF7 = system: MCF7
MDA-MB-231 = system: MDA-MB-231
MDA-MB-435 = system: MDA-MB-435
MDA-N = system: MDA-N
MOLT-4 = system: MOLT-4
NCI-H23 = system: NCI-H23
OVCAR-5 = system: OVCAR-5
SF-295 = system: SF-295
SK-MEL-5 = system: SK-MEL-5
TK-10 = system: TK-10
U-251 = system: U-251
HCC 2998 = system: HCC 2998

Structure (SMILES) | GI50 (A498) | GI50 (ACHN) | GI50 (CAKI-1) | GI50 (CCRF-CEM) | GI50 (HT-29) | GI50 (Hs-578T) | GI50 (IGROV-1) | GI50 (M14) | GI50 (MCF7) | GI50 (MDA-MB-231) | GI50 (MDA-MB-435) | GI50 (MDA-N) | GI50 (MOLT-4) | GI50 (NCI-H23) | GI50 (OVCAR-5) | GI50 (SF-295) | GI50 (SK-MEL-5) | GI50 (TK-10) | GI50 (U-251) | GI50 (HCC 2998)
NNC1=NC(=O)NC(=O)C1 | > 100 µM (inactive) | > 100 µM (inactive) | > 100 µM (inactive) | 68.1 µM (inactive) | > 100 µM (inactive) | > 100 µM (inactive) | > 100 µM (inactive) | > 100 µM (inactive) | > 100 µM (inactive) | > 100 µM (inactive) | > 100 µM (inactive) | > 100 µM (inactive) | > 100 µM (inactive) | > 100 µM (inactive) | > 100 µM (inactive) | > 100 µM (inactive) | > 100 µM (inactive) | > 100 µM (inactive) | > 100 µM (inactive) | –
CC(C)C(Br)CCC1=CCC(Br)(Br)C1 (configuration not stated) | 18.8 µM (inactive) | 16.9 µM (inactive) | 17.2 µM (inactive) | 2.79 µM (inactive) | 13.5 µM (inactive) | 18.6 µM (inactive) | 3.21 µM (inactive) | 3.81 µM (inactive) | 10.8 µM (inactive) | 5.27 µM (inactive) | 10.5 µM (inactive) | 2.94 µM (inactive) | 3.48 µM (inactive) | 9.1 µM (inactive) | 16.7 µM (inactive) | 17 µM (inactive) | 5.45 µM (inactive) | 17.5 µM (inactive) | 15.4 µM (inactive) | 14.9 µM (inactive)
O=S(=O)(CC(Cl)c1ccccc1)c1nc2ccccc2s1 (configuration not stated) | 20 µM (inactive) | 15.5 µM (inactive) | 2.24 µM (inactive) | 1.7 µM (inactive) | 5.42 µM (inactive) | 27.6 µM (inactive) | 9.12 µM (inactive) | 2.29 µM (inactive) | 7.48 µM (inactive) | 14.1 µM (inactive) | 7.71 µM (inactive) | 6.22 µM (inactive) | 2.81 µM (inactive) | 8.38 µM (inactive) | 13.7 µM (inactive) | 17.9 µM (inactive) | 4.01 µM (inactive) | 19.5 µM (inactive) | 12.5 µM (inactive) | 17.5 µM (inactive)
CCCCCCCCCCCCCCCCCc1cccc(OCOCCOC)c1C(=O)O | 17.8 µM (inactive) | 19.1 µM (inactive) | 19.1 µM (inactive) | 26.7 µM (inactive) | 17.1 µM (inactive) | 18.6 µM (inactive) | 16.9 µM (inactive) | 16.5 µM (inactive) | 21.7 µM (inactive) | 19.7 µM (inactive) | 19.2 µM (inactive) | 19.1 µM (inactive) | 21.5 µM (inactive) | 15.2 µM (inactive) | 16.8 µM (inactive) | 18.1 µM (inactive) | 20 µM (inactive) | 18.9 µM (inactive) | 20.3 µM (inactive) | 19.1 µM (inactive)
NC(=O)NC(=O)c1cccc(NC(=O)CCl)c1 | 2.55 µM (inactive) | 2.56 µM (inactive) | 1.39 µM (inactive) | 0.855 µM (active) | 0.883 µM (active) | 3.9 µM (inactive) | 2.79 µM (inactive) | – | 0.989 µM (active) | 2.79 µM (inactive) | 0.518 µM (active) | 0.385 µM (active) | 1.11 µM (active) | 0.953 µM (active) | 1.65 µM (inactive) | 2.79 µM (inactive) | 0.71 µM (active) | 1.35 µM (inactive) | 0.975 µM (active) | 0.764 µM (active)
CCOC(=O)CNC(=O)CNC(=O)CNC(=O)CNNc1c(OCc2ccccc2)c(=O)c1=O | > 100 µM (inactive) | > 100 µM (inactive) | > 100 µM (inactive) | > 100 µM (inactive) | > 100 µM (inactive) | > 100 µM (inactive) | > 100 µM (inactive) | > 100 µM (inactive) | > 100 µM (inactive) | > 100 µM (inactive) | > 100 µM (inactive) | > 100 µM (inactive) | > 100 µM (inactive) | > 100 µM (inactive) | > 100 µM (inactive) | – | > 100 µM (inactive) | > 100 µM (inactive) | > 100 µM (inactive) | > 100 µM (inactive)
CC1=C(C(=O)OC23CC4CC(CC(C4)C2)C3)C(c2ccccc2OC(F)F)C(C(=O)OC23CC4CC(CC(C4)C2)C3)=C(C)N1 (configuration not stated) | > 100 µM (inactive) | – | > 100 µM (inactive) | > 100 µM (inactive) | > 100 µM (inactive) | 68.2 µM (inactive) | > 100 µM (inactive) | > 100 µM (inactive) | 74.6 µM (inactive) | > 100 µM (inactive) | > 100 µM (inactive) | > 100 µM (inactive) | 63.7 µM (inactive) | > 100 µM (inactive) | > 100 µM (inactive) | > 100 µM (inactive) | > 100 µM (inactive) | – | > 100 µM (inactive) | > 100 µM (inactive)
CCOC(=O)/C(C(=O)Nc1cccc(C(F)(F)F)c1)=C(/N)N1CCOCC1 | > 100 µM (inactive) | > 100 µM (inactive) | > 100 µM (inactive) | > 100 µM (inactive) | > 100 µM (inactive) | > 100 µM (inactive) | > 100 µM (inactive) | > 100 µM (inactive) | > 100 µM (inactive) | > 100 µM (inactive) | > 100 µM (inactive) | > 100 µM (inactive) | > 100 µM (inactive) | > 100 µM (inactive) | > 100 µM (inactive) | > 100 µM (inactive) | – | > 100 µM (inactive) | > 100 µM (inactive) | > 100 µM (inactive)
CC1OC(OC2C[C@](O)(C(=O)CBr)Cc3c(O)c4c(c(O)c32)C(=O)c2ccccc2C4=O)C(F)C(O)C1O (some centres not stated) | 11.8 µM (inactive) | 1.53 µM (inactive) | 2.71 µM (inactive) | 0.776 µM (active) | 12.1 µM (inactive) | 30 µM (inactive) | 7.89 µM (inactive) | 7.14 µM (inactive) | 1.19 µM (inactive) | 9.89 µM (inactive) | 14.1 µM (inactive) | 16.3 µM (inactive) | – | 5.58 µM (inactive) | 13.5 µM (inactive) | 3.54 µM (inactive) | 8.95 µM (inactive) | 20.3 µM (inactive) | 5.83 µM (inactive) | 36.3 µM (inactive)
CC[C@H]1CN2CCc3cc(OC)c(OC)cc3[C@@H]2C[C@@H]1C[C@H]1NCCc2c1[nH]c1ccc(O)cc21 [TUBULOSINE] | 0.0301 µM (active) | 0.0396 µM (active) | – | < 0.01 µM (active) | < 0.01 µM (active) | 0.0169 µM (active) | 0.0157 µM (active) | < 0.0125 µM (active) | < 0.01 µM (active) | < 0.01 µM (active) | < 0.0125 µM (active) | < 0.01 µM (active) | < 0.01 µM (active) | < 0.0113 µM (active) | 0.0153 µM (active) | 0.0195 µM (active) | 0.0135 µM (active) | 0.0388 µM (active) | < 0.0103 µM (active) | < 0.0105 µM (active)

— ChEMBL document CHEMBL1201862, “PubChem BioAssay data set” (2004)
